The text below walks through data of the supplement of paper PMC11061612.

Assay [1] concerns NCI-H1869 (Non-Small Cell Lung Carcinoma). Put plainly: Bliss excess, mean over the matrix (fraction); higher = more synergy. The method in brief:
(§1)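 Cell lines in DMEM/F12 or RPMI with 10% FBS were plated in 1536-well plates, held 24 hours at 37°C, 5% CO2, then given two-drug dose matrices for 72 hours (DMSO typically 0.2%). Viability was read by CellTiter-Glo 2.0 luminescence and scaled as inhibition from 0 (vehicle wells) to 1 (blank wells). Combination Emax is the second-highest inhibition in the matrix; Bliss excess is observed combination effect minus expected EA + EB − EA·EB, EA and EB being single-agent effects.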

In assay [2] the test system is COLO-205 (Colorectal Carcinoma). Put plainly: combination Emax (second highest fraction inhibited in the dose matrix, 72 h); higher = more inhibition; extreme values may be limits of the assay. In outline: as §1
Assay [3] has as its system CaR-1 (Colorectal Carcinoma). Described as above. The method in brief: as §1
Assay [4] relates to EC-GI-10 (Esophageal Squamous Cell Carcinoma). The description is as above. In outline:
as §1

The subject of another assay is KELLY (Neuroblastoma). The description is as above. In outline:
as §1

Assay [5] has as its system KYSE-520 (Esophageal Squamous Cell Carcinoma). Described as above. In outline:
as §1

Assay [6] deals with LB831-BLC (Bladder Carcinoma). The assay is described as above. In outline: as §1
Assay [7] concerns LU-135 (Small Cell Lung Carcinoma). The assay is described as above. The method in brief: as §1
The test system of assay [8] is MFE-296 (Endometrial Carcinoma). The description is as above. In outline: as §1
The subject of a further assay is NB10 (Neuroblastoma). The description is as above. The method in brief: as §1
The test system of assay [9] is NCI-H1869 (Non-Small Cell Lung Carcinoma). The assay is described as above. The method in brief:
as §1

The test system of assay [10] is NCI-H82 (Small Cell Lung Carcinoma). Described as above. In outline: as §1
The test system of the next assay is NOS-1 (Osteosarcoma). Described as above. In outline: as §1
Assay [11] has as its system OVCA420 (Ovarian Carcinoma). The assay is described as above. In outline: as §1
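For Bliss excess, mean over the matrix in this document: after 72 h of two-drug dosing.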

As for `CN(C)CCCOc1ccc(-c2ccc3ncc4c(c3c2)n(C2CCOCC2)c(=O)n4C)cn1` [AZD0156] + O=C(c1cc(Cc2n[nH]c(=O)c3ccccc23)ccc1F)N1CCN(C(=O)C2CC2)CC1 [Olaparib] (first compound max 3 µM, partner max 3 µM), the Bliss excess in assay [1] was -0.0306. For the same compound, the “combination Emax” value in assay [2] stood at 0.365; in assay [3] it was 0.207; in assay [4], 0.436; in the assay with KELLY (Neuroblastoma), 0.607; in assay [5], 0.324; in assay [6], 0.26. Further, the “combination Emax” value came to 0.426 in assay [7]; 0.228 in [8]; 0.593 in the assay on NB10 (Neuroblastoma); 0.19 in [9]; 0.382 in assay [10]; 0.328 in the assay with NOS-1 (Osteosarcoma). The “combination Emax” value in [11] is 0.23.
With `C=CCn1c(=O)c2cnc(Nc3ccc(N4CCN(C)CC4)cc3)nc2n1-c1cccc(C(C)(C)O)n1` [AZD1775] + C1CN(CCC1(C(=O)N[C@@H](CCO)C2=CC=C(C=C2)Cl)N)C3=NC=NC4=C3C=CN4 [Capivasertib] (first compound max 3 µM, partner max 3 µM), the Bliss excess in assay [1] turned out to be 0.0342. Further, the “combination Emax” value in assay [2] turned out to be 0.832; in assay [3] it was 0.69; in [4], 0.965; in the assay on KELLY (Neuroblastoma), 1; in assay [5] it was 0.598; in assay [6], 0.75. Further, the “combination Emax” value in assay [7] came out at 0.669; in assay [8], 0.561; in the assay on NB10 (Neuroblastoma) it was 0.892; in assay [9] it was 0.388; in assay [10] it was 0.884; in the assay on NOS-1 (Osteosarcoma) it was 0.606. In addition, in [11], the “combination Emax” value is 0.59.
As to `CC1(C)CCC(CN2CCN(c3ccc(C(=O)NS(=O)(=O)c4ccc(NCC5CCOCC5)c([N+](=O)[O-])c4)c(Oc4cnc5[nH]ccc5c4)c3)CC2)=C(c2ccc(Cl)cc2)C1` [Venetoclax] + C[C@@H](Nc1cc(F)cc(F)c1)c1cc(C(=O)N(C)C)cc2c(=O)cc(N3CCOCC3)oc12 [AZD8186] (first compound max 1 µM, 7x7, partner max 3 µM), the “combination Emax” value in assay [2] worked out at 0.285; in assay [3], 0.109; in [4], 0.131; in the assay with KELLY (Neuroblastoma) it was 1; in assay [5], 0.247; in assay [6] it was 0.182. The “combination Emax” value is 0.484 in assay [7]; 0.0282 in assay [8]; 0.24 with NB10 (Neuroblastoma); 0.141 in [10]; 0.462 in the assay with NOS-1 (Osteosarcoma); 0.165 in [11].
As to `CC1(C)CCC(CN2CCN(c3ccc(C(=O)NS(=O)(=O)c4ccc(NCC5CCOCC5)c([N+](=O)[O-])c4)c(Oc4cnc5[nH]ccc5c4)c3)CC2)=C(c2ccc(Cl)cc2)C1` [Venetoclax] + Cc1cc2ncnn2cc1Nc1ncc2c(n1)n(C1CCOCC1)c(=O)n2C [AZD7648] (first compound max 1 µM, 7x7, partner max 10 µM), the “combination Emax” value in assay [2] stood at 0.213; in [3] it was 0.175; in [4], 0.436; in the assay on KELLY (Neuroblastoma) it was 0.989; in assay [5], 0.34; in assay [6], 0.241. In addition, the “combination Emax” value in assay [7] was determined as 0.386; in [8], 0.147; in the assay with NB10 (Neuroblastoma) it was 0.246; in [10], 0.221; in the assay with NOS-1 (Osteosarcoma), 0.244; in [11], 0.223.
With `CC1(C)CCC(CN2CCN(c3ccc(C(=O)NS(=O)(=O)c4ccc(NCC5CCOCC5)c([N+](=O)[O-])c4)c(Oc4cnc5[nH]ccc5c4)c3)CC2)=C(c2ccc(Cl)cc2)C1` [Venetoclax] + Cn1cnc2c(F)c(Nc3ccc(Br)cc3Cl)c(C(=O)NOCCO)cc21 [Selumetinib] (first compound max 1 µM, 7x7, partner max 3 µM), the “combination Emax” value in assay [2] stood at 0.718; in [3], 0.103; in assay [4], 0.313; in the assay on KELLY (Neuroblastoma), 1; in [5] it was 0.299; in [6] it was 0.142. For the same compound, the “combination Emax” value is 0.332 in [7]; 0.0803 in assay [8]; 0.381 with NB10 (Neuroblastoma); 0.161 in assay [10]; 0.227 in the assay on NOS-1 (Osteosarcoma); 0.403 in assay [11].
